# Source: patent publication US11401255B2, “Small molecule activators of Parkin enzyme function” (Mayo Foundation for Medical Education and Research, priority 2016, dated 2022)
# Tests used:
# [1] = system: Salmonella typhimurium and Escherichia coli tester strains; assay: Bacterial reverse mutation assay (Ames Test), all tester strains; conditions: for mutagenic potential for the tester strains: 50, 100 and 200 μM; for precipitate in strain-compound-GM medium mixture: final concentration 200 μM
# From the text: (§1) The test used amino acid-dependent strains of Salmonella typhimurium and Escherichia coli to detect point mutations which involved substitution, addition or deletion of one or a few DNA base pairs. Point mutations were introduced in the histidine (Salmonella typhimurium) or the tryptophan (Escherichia coli) operon, making the tester strains incapable of producing these amino acids. The test detected mutations that revert the mutations present in the bacteria, restoring the functional capability to synthesize histidine or tryptophan. The revertant bacteria were detected by the ability to grow in the absence of the amino acid required by the parent test strain. A mutagenic potential of a tested compound was assessed by exposing these bacterial strains to different concentrations of the compounds and estimating number of revertant colonies grown in the absence (trace quantities) of the amino acid.
# (§2) DMSO was used as the negative control.
# (§3) For each experiment, tester strain cultures were grown overnight in Oxoid nutrient broth #2 at 37° C. with shaking at 235 rpm to a density of 1-2×10^9 colony forming units/mL (OD540˜2).
# (§4) The tester strain (10 μL of night culture) was mixed with the test agent (10 µL of the DMSO stock) and GM liquid medium (30 μL). The obtained mixture was incubated at room temperature for 5 min in a sterile 1.5 mL tube. Then, to the tube was added 200 μL of molten top agar stored at 44° C. to prevent solidifying. After mixing with a pipette, the mixture was poured onto the surface of a GM agar plate (2.0 mL of GM agar per plate). After solidifying the top agar, the plate was inverted and incubated at 37° C. for 48 hours. Then, results were expressed as number of revertant colonies per plate.
# [2] = system: wp2[pKM101]+wp2 uvrA mixed 1:2; assay: Ames Test, E. coli
# From the text: as §1, §2, §3, §4
# [3] = Metabolic stability in mouse liver microsomes; assay type: in vitro ADME; conditions: 2 μM, 40 minutes, mouse hepatic microsomes
# Experimental: Metabolic stability was defined as the percentage of parent compound lost over time in the presence of a metabolically active test system, such as rodent liver microsomal fractions.
# Mouse hepatic microsomes were isolated from pooled (50), perfused livers of BALB/c male mice according to the standard protocol (Hill, J. R. in Current Protocols in Pharmacology 7.8.1-7.8.11, Wiley Interscience, 2003). The batch of microsomes was tested for quality control using imipramine, propranolol and verapamil as reference compounds. Microsomal incubations were carried out in 96-well plates in 5 aliquots of 40 μL each (one for each time point). Liver microsomal incubation medium contained PBS (100 mM, pH 7.4), MgCl2 (3.3 mM), NADPH (3 mM), glucose-6-phosphate (5.3 mM), glucose-6-phosphate dehydrogenase (0.67 units/mL) with 0.42 mg of liver microsomal protein per mL. Control incubations were performed replacing the NADPH-cofactor system with PBS. Compounds 1-4 and 31 (2 μM, final solvent concentration 1.6%) were each incubated with microsomes at 37° C. while shaking at […]. Incubations were performed in duplicates. Five time points over 40 minutes were analyzed. The reactions were stopped by adding 12 volumes of 90% acetonitrile-water to incubation aliquots, followed by protein sedimentation by centrifuging at 5500 rpm for 3 minutes. Supernatants were analyzed using the HPLC system coupled with tandem mass spectrometer. The elimination constant (kel), half-life (t1/2) and intrinsic clearance (Clint) were determined in a plot of ln(AUC) versus time, using linear regression analysis:
# [formula] [formula] In order to indicate the quality of the linear regression analysis, the R (correlation coefficient) values were provided. In some cases, the last time point was excluded from the calculations to ensure acceptable logarithmic linearity of decay. C. Results
# [4] = system: CYP450 panel (1A2, 2C9, 2C19, 2D6, 3A4); assay: P450-Glo CYP450 inhibition, whole panel; assay type: in vitro ADME; conditions: 10 μM
# Experimental: All test points were performed in quadruplicates. Control membranes (without CYPs) represented the Negative control (baseline). DMSO final concentration was 0.25%.
# Parkin = Parkin (Homo sapiens (Human), UniProt O60260); assay: Thermal shift (protein melting) assay; assay type: binding; conditions: 500 nM compound, 50 ng purified Parkin, SYPRO orange
# Sequence of Parkin (O60260 whole entry): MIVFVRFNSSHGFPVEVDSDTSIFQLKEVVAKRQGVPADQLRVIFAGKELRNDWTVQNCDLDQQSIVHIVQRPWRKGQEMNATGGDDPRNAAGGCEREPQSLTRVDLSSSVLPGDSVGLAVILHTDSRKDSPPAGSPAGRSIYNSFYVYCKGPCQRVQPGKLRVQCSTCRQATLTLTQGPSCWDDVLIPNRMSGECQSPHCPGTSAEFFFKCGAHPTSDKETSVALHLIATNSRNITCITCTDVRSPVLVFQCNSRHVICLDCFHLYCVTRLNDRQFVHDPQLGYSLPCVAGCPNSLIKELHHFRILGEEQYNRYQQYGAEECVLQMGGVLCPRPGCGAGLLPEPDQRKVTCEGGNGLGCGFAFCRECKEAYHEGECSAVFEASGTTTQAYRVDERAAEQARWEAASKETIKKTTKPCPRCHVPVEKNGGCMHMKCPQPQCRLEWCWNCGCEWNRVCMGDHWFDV
# Experimental: FIGS. 15A-15H show Parkin activation in primary fibroblasts, neuronal cells and in vitro. Positive control (PC) cells were treated with DMSO and 10 μM of CCCP. Negative control (NC) cells were treated with 3.5 μM CCCP, some cells were left untreated (−). […] Vinculin was used as loading control. […] FIG. 15C: Human fibroblasts were directly converted to neurons and treated as in FIG. 15B. […] Beta III tubulin confirmed successful conversion of fibroblasts to iNeurons. FIG. 15D: Rat PC12 cells were treated as in FIG. 15A. Western blots show enhanced ubiquitylation of MFN2 and TOM70, and robust pSer65-Ub induction similar to PC, but not NC cells. FIG. 15E: In vitro E2 discharge assay. Recombinant Parkin was pre-incubated with compound 4 or DMSO as control and was mixed to Ub-loaded UbcH7. […] Control reactions were performed without PINK1 or Parkin. FIG. 15F: In vitro assay with isolated mitochondria from untreated or CCCP-treated HeLa cells lacking Parkin. […]
# To validate direct binding of activating compounds to Parkin as predicted from the in silico approach, a thermofluor shift assay was used. Recombinant purified Parkin was mixed together with compound 4 or DMSO as a control and the melting temperature was monitored using SYPRO Orange dye.
# The thermal shift assay was performed as follows. […] Data was exported and analyzed using the Protein Melting Analysis tool (Roche Applied Science).
# [5] = 50 μM (row printed 100; conc. column shifted)
# [6] = 100 μM (row printed 200; conc. column shifted)
# [7] = 200 μM (row printed 0; conc. column shifted)
SMILES,mutagenic potential for the tester strains [1],precipitate in strain-compound-GM medium mixture [1],"Fold increase (over baseline) [2, 5]","Mean ± SD [2, 5]","Fold increase (over baseline) [2, 6]","Mean ± SD [2, 6]","Fold increase (over baseline) [2, 7]","Mean ± SD [2, 7]",metabolic stability [3],mutagenic activity ([2]; 200 μM),inhibition of all 5 tested CYP450 [4],Parkin melting temperature shift (Parkin) [°C]
O=C(Cn1cnc2c1CCCC2)Nc1ccc(-c2ccccc2)cc1 [Compound 1],no mutagenic potential,Precipitate was observed,0,0 ± 0 revertant colonies per plate,0,0 ± 0 revertant colonies per plate,0,0 ± 0 revertant colonies per plate,moderate stability,–,–,–
CC(C)c1nccn1CC(=O)Nc1ccc(-c2ccccc2)cc1 [Compound 2],no mutagenic potential,–,0.63,2.5 ± 2.12 revertant colonies per plate,0.38,1.5 ± 0.7 revertant colonies per plate,0.5,2 ± 2.82 revertant colonies per plate,moderate stability,–,–,–
CC(C)(C)Sc1ccc(NC(=O)Cn2ccnc2)cc1 [Compound 3],–,–,1,4 ± 0 revertant colonies per plate,1.75,7 ± 0 revertant colonies per plate,>75,>300 revertant colonies per plate,high metabolic stability,mutagenic activity,very high inhibition,–
O=C(Cn1ccnc1-c1ccccn1)Nc1ccc(-c2ccccc2)cc1 [Compound 4],no mutagenic potential,Precipitate was observed,0.75,3 ± 1.41 revertant colonies per plate,0.38,1.5 ± 0.7 revertant colonies per plate,1.38,5.5 ± 2.12 revertant colonies per plate,low stability,–,did not show a significant inhibition,3
Cc1nc2c(c(N3CCCN(Cc4ccccc4)CC3)n1)CCCC2 [Compound 31],no mutagenic potential,–,1.13,4.5 ± 3.53 revertant colonies per plate,0.38,1.5 ± 0.7 revertant colonies per plate,0,0 ± 0 revertant colonies per plate,low stability,–,–,–
